Laboratory results published in ChEMBL document CHEMBL4651402, “Screening of ~5500 FDA-approved drugs and clinical candidates for anti-SARS-CoV-2 activity” (2021).
Peptide text beside a SMILES is read from it.

Tested on: SARS-CoV-2
Experiment: microbe, parasite or virus in culture
Details: Severe acute respiratory syndrome coronavirus 2, Vero C1008, 48 h

| SMILES | IC50 | IC50 (read-out: pIC50 (converted)) |
| --- | --- | --- |
| CC(C)Cn1c(=O)n(C)c(=O)c2nc[nH]c21 [ISOBUTYLMETHYLXANTHINE] | > 20 µM | > 20 µM |
| CC(C)C(N)=O [ISOBUTYRAMIDE] | > 20 µM | > 20 µM |
| Cc1cc(C(=O)NNCc2ccccc2)no1 [ISOCARBOXAZID] | > 20 µM | > 20 µM |
| Clc1ccc(C(Cn2ccnc2)OCc2c(Cl)cccc2Cl)c(Cl)c1 (stereo unspecified) [ISOCONAZOLE] | > 20 µM | > 20 µM |
| COc1ccc2c(c1O)-c1c(OC)c(OC)cc3c1[C@H](C2)N(C)CC3 [ISOCORYDINE] | > 20 µM | > 20 µM |
| CC(=O)OCC(=O)[C@@]1(O)CC[C@H]2[C@@H]3CCC4=CC(=O)C=C[C@]4(C)[C@@]3(F)[C@@H](O)C[C@@]21C [ISOFLUPREDONE ACETATE] | > 20 µM | > 20 µM |
| O=C(O)C1=CCNCC1 [ISOGUVACINE] | > 20 µM | > 20 µM |
| C=C1CCC2C(CC2(C)C)C(=O)CCC1O (stereo unspecified) [ISOKOBUSONE] | > 20 µM | > 20 µM |
| O=C(/C=C/c1ccc(O)cc1)c1ccc(O)cc1O [ISOLIQUIRITIGENIN] | > 20 µM | > 20 µM |
| CCC(=O)C(c1ccccc1)(c1ccccc1)C(C)CN(C)C (stereo unspecified) [ISOMETHADONE] | > 20 µM | > 20 µM |
| CNC(C)CCC=C(C)C (stereo unspecified) [ISOMETHEPTENE] | > 20 µM | > 20 µM |
| NNC(=O)c1ccncc1 [ISONIAZID] | > 20 µM | > 20 µM |
| COc1c2ccoc2c(OC)c2oc(=O)ccc12 [ISOPIMPINELLIN] | > 20 µM | > 20 µM |
| CC(C)[N+](C)(CCC(C(N)=O)(c1ccccc1)c1ccccc1)C(C)C [ISOPROPAMIDE] | > 20 µM | > 20 µM |
| CC(C)NCC(O)c1ccc(O)c(O)c1 (stereo unspecified) [ISOPROTERENOL] | > 20 µM | > 20 µM |
| O=[N+]([O-])O[C@@H]1CO[C@H]2[C@@H]1OC[C@@H]2O [ISOSORBIDE MONONITRATE] | > 20 µM | > 20 µM |
| O[C@@H]1CO[C@H]2[C@@H]1OC[C@@H]2O [ISOSORBIDE] | > 20 µM | > 20 µM |
| CC(=O)N[C@@H](CC(=O)O)C(=O)N[C@@H](CCC(=O)O)C(=O)O [ISOSPAGLUMIC ACID] (Ac-Asp-Glu-OH) | > 20 µM | > 20 µM |
| Cc1ccnc2c1CCCC2C(N)=S (stereo unspecified) [ISOTIQUIMIDE] | > 20 µM | > 20 µM |

| SMILES | IC50 | IC50 (read-out: pIC50 (converted)) |
| --- | --- | --- |
| CC(C)CC(N)=O [ISOVALERAMIDE] | > 20 µM | > 20 µM |
| Cc1cc(NC(=O)C2=C(O)c3ccccc3S(=O)(=O)N2C)no1 [ISOXICAM] | > 20 µM | > 20 µM |
| CC(COc1ccccc1)NC(C)C(O)c1ccc(O)cc1 (stereo unspecified) [ISOXSUPRINE] | > 20 µM | > 20 µM |
| Cc1ccc(C(=O)N(CCCN)[C@@H](c2nc3cc(Cl)ccc3c(=O)n2Cc2ccccc2)C(C)C)cc1 [ISPINESIB] | > 20 µM | > 20 µM |
| CN[C@@H](C)C/C=C/c1cncc(OC(C)C)c1 [ISPRONICLINE] | > 20 µM | > 20 µM |
| COC(=O)C1=C(C)NC(C)=C(C(=O)OC(C)C)C1c1cccc2nonc12 (stereo unspecified) [ISRADIPINE] | > 20 µM | > 20 µM |
| C[C@]12CCC(=NOCCN)C[C@@H]1C(=O)C[C@@H]1[C@@H]2CC[C@]2(C)C(=O)CC[C@@H]12 [ISTAROXIME] | > 20 µM | > 20 µM |
| CCn1c(=O)c2c(nc(/C=C/c3ccc(OC)c(OC)c3)n2C)n(CC)c1=O [ISTRADEFYLLINE] | > 20 µM | > 20 µM |
| N#CCC1(n2cc(-c3ncnc4[nH]ccc34)cn2)CN(C2CCN(C(=O)c3ccnc(C(F)(F)F)c3F)CC2)C1 [ITACITINIB] | > 20 µM | > 20 µM |
| COc1ccc(-c2nc(C(F)(F)F)sc2-c2ccc(OC)cc2)cc1 [ITAZIGREL] | > 20 µM | > 20 µM |
| COc1ccc(C(=O)NCc2ccc(OCCN(C)C)cc2)cc1OC [ITOPRIDE] | > 20 µM | > 20 µM |
| COc1cc2c(cc1OC)CC(=O)N(CCCN(C)C[C@H]1Cc3cc(OC)c(OC)cc31)CC2 [IVABRADINE] | > 20 µM | > 20 µM |
| COc1ccc(-c2c(C#N)c(C(=O)NN3CCCCC3)nn2-c2ccc(Cl)cc2Cl)cc1 [JHU-75528] | > 20 µM | > 20 µM |
| C[N+](C)(Cc1ccc(NC(=O)c2ccc(Cl)c(Cl)c2)cc1)C1CCOCC1 [JNJ-17166864 CATION] | > 20 µM | > 20 µM |
| NS(=O)(=O)NC[C@H]1COc2cc(Cl)ccc2O1 [JNJ-26489112] | > 20 µM | > 20 µM |
| Fc1ccc(CN2CCC(Nc3ccc(C(F)(F)F)nn3)CC2)cc1F [JNJ-37822681] | > 20 µM | > 20 µM |
| O=C(c1ccc(Oc2ccc(F)cc2)nc1)N1CCCN(C2CCC2)CC1 [JNJ-39220675] | > 20 µM | > 20 µM |
| CN(C)C(=O)CCn1nc(Nc2ccc3c(c2)OC(F)(F)O3)nc1-c1ccncc1 [JNJ-39393406] | > 20 µM | > 20 µM |
| CCCCn1ccc(N2CCC(c3ccccc3)CC2)c(Cl)c1=O [JNJ-40411813] | > 20 µM | > 20 µM |
